One assay relates to HCT-116. Put plainly: MTT proliferation assay, colon cancer. Format: cell-based. Particulars: Homo sapiens. As to the method: The antiproliferative activity was assessed by MTT proliferation assay (Table III) The anticancer activity was also investigated in a rare and lethal cancer (i.e. anaplastic thyroid cancer) by the use of three ATC-derived cell lines (Sw, FRO, 8505c). Again, the IC50 value after 72 h exposure was in the range of 10 to 50 nM. The same trend was also observed in four melanoma cell lines A2058, M14 (genotype BRAFV600E), SKMEL 197 e MEWO (genotype BRAF wild-type).
Table III IC50 expressed in μM and Emax (at 30 μM) for FC86 after 72 h exposure, were calculated by MTT assay
In general terms: Tetrazolium dyes change colour on reduction, which living cells bring about.

A further assay deals with TMD8. Put plainly: MTT proliferation assay, B-cell lymphoma cell line. Format: cell-based. The following applies: Homo sapiens; TMD8, 72 h of drug incubation. As to the method:
(§1) All the above compounds were tested in vitro for their anticancer activity against a panel of eight B-cell lymphoma cell lines by MTT proliferation assay. The tested cell lines belonging to mantle cell lymphoma (MCL: REC1, Z138), activated B-cell diffuse large B-cell lymphoma (ABC-DLBCL: R11, HBL1, U2932, TMD8), germinal center B-cell diffuse large B-cell lymphoma (GCB-DLBCL: SU-DHL-10, FARAGE) subtypes. In overall, MCL cell lines present Cyclin D1 overexpression, while ABC- and GCB-DLBCL's proliferation is BCR and BCL6/HDACs driven, respectively. At the RNA level, all tested lymphoma cell lines were characterized by an overexpression of 14-3-3 zeta as reported for B-cell lymphomas resistant to chemotherapeutic regimen.

The next assay relates to U2932. Put plainly: MTT proliferation assay, B-cell lymphoma cell line. Format: cell-based. Particulars: Homo sapiens; U2932, 72 h of drug incubation. As to the method:
as §1

Another assay deals with SUDHL10. The assay can be described thus: MTT proliferation assay, B-cell lymphoma cell line. Particulars: Homo sapiens, SU-DHL10; SUDHL10, 72 h of drug incubation. Format: cell-based. As to the method:
as §1

The next assay concerns REC1. The assay can be described thus: MTT proliferation assay, B-cell lymphoma cell line. Format: cell-based. The following applies: Homo sapiens; REC1, 72 h of drug incubation. As to the method: as §1
The test system of a further assay is HBL1. The assay can be described thus: MTT proliferation assay, B-cell lymphoma cell line. Format: cell-based. Particulars: HBL1, 72 h of drug incubation. As to the method: as §1
For another assay, the system named is FARAGE. Put plainly: MTT proliferation assay, B-cell lymphoma cell line. The following applies: 72 h of drug incubation. Format: cell-based. As to the method: as §1
The test system of a further assay is RI1. The assay can be described thus: MTT proliferation assay, B-cell lymphoma cell line. Format: cell-based. The following applies: Ri-1; RI1, 72 h of drug incubation. The method, then: as §1
For another assay, the system named is Z138. Put plainly: MTT proliferation assay, B-cell lymphoma cell line. Format: cell-based. The following applies: Homo sapiens, Z-138; Z138, 72 h of drug incubation. As to the method: as §1
Another assay relates to 14-3-3. Put plainly: DARTS in U937 cells. Particulars: 50 nM, 2 h, MS and western blot. Format: binding. The method, then:
FIG. 4 represents DARTS experiments results as reported in example 6: Proteins obtained from U937 cells incubated with 50 nM FC86 or with the medium for 2 h underwent subtilisin-catalyzed digestion.
Current protocols in chemical biology 2011, 3:163-180]. […] The same DARTS experiments were also performed by incubating glioblastoma cell lines (U87MG) with subtoxic amounts of FC86 and data collected confirmed the 14-3-3 as target protein. (FIG. 5).
The identification of putative targets of FC86 was achieved by Drug Affinity Responsive Target Stability (DARTS) experiments. Cancer cells were incubated with a sub-toxic concentration (50 nM for U937 and 5 μM for U87MG) of FC86 for 2 h or with the medium (control cells). After the treatments, treated and control cells were collected and whole protein extracts were prepared by lysing cells in 20 mM Tris-HCl (pH 7.5), 150 mM NaCl, 1 mM EDTA, 1 mM EGTA, 1% NP-40, 1% sodium deoxycholate, 2.5 mM sodium pyrophosphate, 1 mM β-glycerophosphate, 1 mM Na3VO4, 1 μg/ml leupeptin. Protein concentration was determined by the Bradford protein assay using bovine serum albumin as standard. […] Parameters sets were: trypsin cleavage; carbamidomethylation of cysteine as a fixed modification and methionine oxidation as a variable modification; a maximum of two missed cleavages; false discovery rate (FDR), calculated by searching the decoy database, 0.05. […]
On the technique in general: Immunoblotting shows a protein as a band on a membrane.

“Also recorded” adds a separate entry of the source.

As for `Cc1ccc(S(=O)(=O)Nc2ccc3c(c2)/C(=C/c2cccs2)C(=O)N3)cc1` [FC86, N-[(3Z)-2-oxo-3-(thiophene-2-ylmethylidene)-2,3-dihydro-1H-indol-5-yl]-4-methylbenzenesulfonamide], the Emax at 30 µM in the assay with HCT-116 (Colon HCT-116, 30 μM, 72 h) was found to be 62%. Moreover, the IC50 (in general, the concentration that inhibits the measured activity by half) is 1600 nM in the assay on HCT-116 (Colon HCT-116, 72 h exposure); 20 nM in the assay with TMD8; 20 nM in the assay with U2932; 25 nM in the assay on SUDHL10; 10 nM in the assay with REC1; 25 nM with HBL1. Moreover, the IC50 in the assay on FARAGE amounted to 15 nM; with RI1, 25 nM; with Z138, 25 nM. Moreover, the “resistance of 14-3-3 to subtilisin proteolysis (DARTS)” value with 14-3-3 is given as “significant protection from proteolysis; also recorded: significant increment of resistance to proteolysis”.

Values taken from US20240350458A1, “14-3-3 PROTEIN MODULATORS AS ANTITUMOR AGENTS” (priority 2021, published 2024).
